Test results reported in patent EP0145484B1, “Vancomycin purification improvement and product” (ELI LILLY AND COMPANY, priority 1983, dated 1985).

Assay: Stability of bulk samples on storage
Assay type: physicochemical
Conditions: three lots prepared by the method of Example 2, stored at 21-28°C in polyethylene containers; over a twelve month period; 525600 min
Description: The vancomycin diphosphate crystal form provided by this invention is a highly crystalline solid when hydrated that is stable over prolonged periods of time. The stability of bulk samples of vancomycin diphosphate was determined by preparing three lots of the compound by the method of Example 2. Samples of the three individual lots were stored at 21-28°C in polyethylene containers. Various physical parameters of each of the three lots were analyzed at zero, six, twelve and eighteen months.

## vancomycin diphosphate
  initial biological activity retained: more than 90%
